Target: T1, Cholesteryl ester transfer protein (Homo sapiens, UniProt P11597)
T1 sequence (P11597 whole entry): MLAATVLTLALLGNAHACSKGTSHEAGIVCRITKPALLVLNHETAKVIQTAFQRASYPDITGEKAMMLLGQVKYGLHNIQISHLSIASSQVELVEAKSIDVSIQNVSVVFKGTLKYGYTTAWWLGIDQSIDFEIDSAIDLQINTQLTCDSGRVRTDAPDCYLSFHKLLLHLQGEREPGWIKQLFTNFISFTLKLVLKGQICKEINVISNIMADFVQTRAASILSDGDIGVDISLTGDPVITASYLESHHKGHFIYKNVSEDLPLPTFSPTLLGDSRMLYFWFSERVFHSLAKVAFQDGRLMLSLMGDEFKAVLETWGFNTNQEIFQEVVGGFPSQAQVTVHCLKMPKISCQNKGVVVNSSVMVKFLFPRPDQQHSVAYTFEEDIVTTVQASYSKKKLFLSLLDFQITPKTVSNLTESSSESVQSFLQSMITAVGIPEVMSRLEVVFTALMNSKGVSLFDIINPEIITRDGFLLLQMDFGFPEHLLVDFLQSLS
Assay: Inhibition of human recombinant CETP by fluorescence transfer assay

IC50: 4.05 µM
SMILES: CC(C)c1nc2c(c3c1[C@@H](c1ccccc1)OC31CCCC1)[C@@H](O)CC(C)(C)C2

Reference: ChEMBL document CHEMBL3351249, “Potent cholesteryl ester transfer protein inhibitors of reduced lipophilicity: 1,1'-spiro-substituted hexahydrofuroquinoline derivatives” (J Med Chem, 2014)
